Publication PMC8452302 (CPT: Pharmacometrics & Systems Pharmacology, 2021)
Read-outs that look alike come from different tables or passages of the source.

Experiments:
OATP1B1 [1] = target: T1, OATP1B1 (Homo sapiens, UniProt Q9Y6L6); test: In vitro OATP1B1 inhibition, transfected HEK293 cells, rosuvastatin probe; type: cell-based
T1 sequence (Q9Y6L6 1-691): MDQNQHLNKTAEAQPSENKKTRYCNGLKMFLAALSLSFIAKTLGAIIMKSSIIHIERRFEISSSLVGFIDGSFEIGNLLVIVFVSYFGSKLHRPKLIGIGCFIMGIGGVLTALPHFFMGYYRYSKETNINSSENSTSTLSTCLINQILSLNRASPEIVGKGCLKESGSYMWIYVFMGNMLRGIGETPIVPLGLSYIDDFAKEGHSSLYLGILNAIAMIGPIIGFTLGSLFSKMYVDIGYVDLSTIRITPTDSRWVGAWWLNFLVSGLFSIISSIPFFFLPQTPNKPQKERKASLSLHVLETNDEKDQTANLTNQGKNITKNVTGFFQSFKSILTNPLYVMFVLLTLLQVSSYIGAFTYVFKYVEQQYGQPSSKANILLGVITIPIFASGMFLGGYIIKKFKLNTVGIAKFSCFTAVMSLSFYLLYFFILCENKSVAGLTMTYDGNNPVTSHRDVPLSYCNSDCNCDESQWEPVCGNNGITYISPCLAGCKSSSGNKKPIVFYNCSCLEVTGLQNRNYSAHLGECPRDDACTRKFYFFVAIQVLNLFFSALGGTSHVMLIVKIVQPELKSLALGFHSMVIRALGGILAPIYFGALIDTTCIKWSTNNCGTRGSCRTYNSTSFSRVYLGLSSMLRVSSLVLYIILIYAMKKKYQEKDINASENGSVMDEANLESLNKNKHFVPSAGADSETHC

OATP1B1 [2] = target: T1, OATP1B1; test: Static DDI risk assessment, OATP1B1 R-value; settings: 1 + Iin,max,u/IC50; metabolite/combination additive; Imax,u for IV
OATP1B3 [3] = target: T2, OATP1B3 (Homo sapiens, UniProt Q9NPD5); test: In vitro OATP1B3 inhibition, transfected HEK293 cells, rosuvastatin probe; type: cell-based
T2 sequence (Q9NPD5 1-702): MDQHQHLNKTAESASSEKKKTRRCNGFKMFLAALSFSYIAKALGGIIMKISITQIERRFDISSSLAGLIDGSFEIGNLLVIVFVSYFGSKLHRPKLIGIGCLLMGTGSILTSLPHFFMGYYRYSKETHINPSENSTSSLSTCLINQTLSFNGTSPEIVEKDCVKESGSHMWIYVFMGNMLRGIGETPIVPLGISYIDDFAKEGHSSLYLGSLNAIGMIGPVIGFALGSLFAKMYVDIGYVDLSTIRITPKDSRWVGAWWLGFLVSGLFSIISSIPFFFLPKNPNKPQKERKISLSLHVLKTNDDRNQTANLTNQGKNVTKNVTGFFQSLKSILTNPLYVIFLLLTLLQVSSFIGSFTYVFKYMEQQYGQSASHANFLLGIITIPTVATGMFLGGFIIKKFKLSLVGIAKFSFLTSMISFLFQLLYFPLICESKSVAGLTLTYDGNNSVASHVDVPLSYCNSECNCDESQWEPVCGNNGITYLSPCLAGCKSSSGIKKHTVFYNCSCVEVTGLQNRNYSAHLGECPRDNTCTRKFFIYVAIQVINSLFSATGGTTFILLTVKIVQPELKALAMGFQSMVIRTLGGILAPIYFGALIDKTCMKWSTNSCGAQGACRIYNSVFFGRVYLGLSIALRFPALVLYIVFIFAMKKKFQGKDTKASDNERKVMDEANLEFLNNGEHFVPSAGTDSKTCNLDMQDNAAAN

BCRP = target: T3, BCRP (Homo sapiens, UniProt Q9UNQ0); test: In vitro BCRP inhibition, HEK293-BCRP membrane vesicles, rosuvastatin probe; type: biochemical
T3 sequence (Q9UNQ0 1-655): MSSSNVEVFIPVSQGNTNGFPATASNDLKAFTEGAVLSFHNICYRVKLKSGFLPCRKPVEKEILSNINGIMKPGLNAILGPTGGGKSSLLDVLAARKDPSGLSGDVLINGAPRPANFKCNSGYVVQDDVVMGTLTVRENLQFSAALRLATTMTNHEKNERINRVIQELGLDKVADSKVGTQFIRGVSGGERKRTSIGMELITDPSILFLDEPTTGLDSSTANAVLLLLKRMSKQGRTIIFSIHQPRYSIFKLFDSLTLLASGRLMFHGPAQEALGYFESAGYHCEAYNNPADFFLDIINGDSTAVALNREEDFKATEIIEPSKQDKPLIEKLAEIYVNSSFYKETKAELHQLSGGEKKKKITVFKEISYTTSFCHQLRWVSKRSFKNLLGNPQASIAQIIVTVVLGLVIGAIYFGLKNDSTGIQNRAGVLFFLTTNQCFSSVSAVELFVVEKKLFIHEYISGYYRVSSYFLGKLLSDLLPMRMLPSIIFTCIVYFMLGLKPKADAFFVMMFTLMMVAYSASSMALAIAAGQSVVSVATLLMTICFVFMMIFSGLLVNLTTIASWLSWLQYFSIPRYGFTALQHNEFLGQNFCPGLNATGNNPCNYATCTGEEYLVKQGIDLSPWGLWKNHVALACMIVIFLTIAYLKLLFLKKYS

OATP1B3 [4] = target: T2, OATP1B3; test: Static DDI risk assessment, OATP1B3 R-value; settings: 1 + Iin,max,u/IC50; metabolite/combination additive; Imax,u for IV
[5] = cited from earlier work; for Rosuvastatin AUC ratio: observed, rosuvastatin with vs without inhibitor; for Rosuvastatin AUC ratio / Cmax ratio Observed: ref Table S1; for Cmax ratio Observed: rosuvastatin with/without inhibitor, regimens as in table row
OATP1B1 [6] = settings: cited from earlier work
BCRP (ABCG2 c.421C>A) = settings: cited from earlier work
[7] = substrate: CC(C)c1nc(N(C)S(C)(=O)=O)nc(-c2ccc(F)cc2)c1/C=C/[C@@H](O)C[C@@H](O)CC(=O)O; test: BCRP-mediated transport of substrate; type: in vitro ADME, human; settings: other: membrane vesicles
[8] = substrate: CC(C)c1nc(N(C)S(C)(=O)=O)nc(-c2ccc(F)cc2)c1/C=C/[C@@H](O)C[C@@H](O)CC(=O)O; test: OATP1B1-mediated transport of substrate; type: in vitro ADME; settings: other: transfected HEK293 cells

IC50 (OATP1B1 [1]) [µM] | 1B1 R-Value (OATP1B1 [2]) | IC50 (OATP1B3 [3]) [µM] | IC50 (BCRP) [µM] | 1B3 R-Value (OATP1B3 [4]) | Molecule | Rosuvastatin AUC ratio [5] | Cmax ratio Observed [5] | also measured
7.8 | 1.00 | > 10 | 0.14 | 1.00 | COC(=O)N[C@H](C(=O)N1CCC[C@H]1c1nc(-c2ccc3c(c2)O[C@@H](c2ccccc2)n2c-3cc3cc(-c4c[nH]c([C@@H]5CCCN5C(=O)[C@@H](NC(=O)OC)C(C)C)n4)ccc32)c[nH]1)C(C)C [Elbasvir] | 1.42 | – | –
27.3 | 1.01 | 3 | 0.95 | 1.10 | CC1=NN(c2ccc(C)c(C)c2)C(=O)/C1=N\Nc1cccc(-c2cccc(C(=O)O)c2)c1O [Eltrombopag] | 1.55 | – | –
6.8 | 1.46 | 1.1 | 0.63 | 3.86 | C[C@H]1CN(C2COC2)CCN1c1ccc(Nc2cc(-c3ccnc(N4CCn5c(cc6c5CC(C)(C)C6)C4=O)c3CO)cn(C)c2=O)nc1 [Fenebrutinib] | 2.48 | 4.74 | change in plasma exposure of OATP1B1 biomarker coproporphyrin I (OATP1B1 [6]): no change; increase in rosuvastatin AUC [5]: ~ 150%
– | 1.24 | – | – | 1.07 | C=C[C@@H]1C[C@]1(NC(=O)[C@@H]1C[C@@H]2CN1C(=O)[C@H](C(C)(C)C)NC(=O)O[C@@H]1C[C@H]1CCCCCc1nc3ccc(OC)cc3nc1O2)C(=O)NS(=O)(=O)C1CC1.O [Grazoprevir] | 1.59 | 4.25 | effect on clinical PK of pitavastatin (OATP1B1 probe substrate) (OATP1B1 [6]): do not alter; IC50 (BCRP; read-out: BCRP IC50, membrane vesicles, rosuvastatin 0.2 µM probe): 4.03 µM
12.9 | 1.01 | > 20 | 3.2 | 1.00 | CCC(C)n1ncn(-c2ccc(N3CCN(c4ccc(OCC5COC(Cn6cncn6)(c6ccc(Cl)cc6Cl)O5)cc4)CC3)cc2)c1=O (stereo not shown) [Itraconazole] | 1.26 | 1.38 | –

Continued, molecule first:

Molecule | IC50 (OATP1B1 [1]) [µM] | 1B1 R-Value (OATP1B1 [2]) | IC50 (OATP1B3 [3]) [µM] | IC50 (BCRP) [µM] | 1B3 R-Value (OATP1B3 [4]) | Rosuvastatin AUC ratio [5] | Cmax ratio Observed [5] | also measured
CC[C@H]1[C@@H](O)[C@@H]2[C@H](CC[C@]3(C)[C@@H]([C@H](C)CCC(=O)O)CC[C@@H]23)[C@@]2(C)CC[C@@H](O)C[C@@H]12 [Obeticholic acid] | 1.96 | 1.02 | 2.15 | 4.1 | 1.02 | 1.25 | – | –
O=C(O)c1cc(/N=N/c2ccc(S(=O)(=O)Nc3ccccn3)cc2)ccc1O [sulfasalazine] | – | – | – | – | – | – | – | increase in oral exposure, c.421A/A vs c.421C/C carriers (BCRP (ABCG2 c.421C>A)): ≤ 3.5 fold
BCRP (Homo sapiens) (protein) MSSSNVEVFIPVSQGNTNGFPATASNDLKAFTEGAVLSFHNICYRVKLKSGFLPCRKPVEKEILSNINGIMKPGLNAILGPTGGGKSSLLDVLAARKDPSGLSGDVLINGAPRPANFKCNSGYVVQDDVVMGTLTVRENLQFSAALRLATTMTNHEKNERINRVIQELGLDKVADSKVGTQFIRGVSGGERKRTSIGMELITDPSILFLDEPTTGLDSSTANAVLLLLKRMSKQGRTIIFSIHQPRYSIFKLFDSLTLLASGRLMFHGPAQEALGYFESAGYHCEAYNNPADFFLDIINGDSTAVALNREEDFKATEIIEPSKQDKPLIEKLAEIYVNSSFYKETKAELHQLSGGEKKKKITVFKEISYTTSFCHQLRWVSKRSFKNLLGNPQASIAQIIVTVVLGLVIGAIYFGLKNDSTGIQNRAGVLFFLTTNQCFSSVSAVELFVVEKKLFIHEYISGYYRVSSYFLGKLLSDLLPMRMLPSIIFTCIVYFMLGLKPKADAFFVMMFTLMMVAYSASSMALAIAAGQSVVSVATLLMTICFVFMMIFSGLLVNLTTIASWLSWLQYFSIPRYGFTALQHNEFLGQNFCPGLNATGNNPCNYATCTGEEYLVKQGIDLSPWGLWKNHVALACMIVIFLTIAYLKLLFLKKYS | – | – | – | – | – | – | – | Km [7]: 3.2 µM
OATP1B1 (Homo sapiens) (protein) MDQNQHLNKTAEAQPSENKKTRYCNGLKMFLAALSLSFIAKTLGAIIMKSSIIHIERRFEISSSLVGFIDGSFEIGNLLVIVFVSYFGSKLHRPKLIGIGCFIMGIGGVLTALPHFFMGYYRYSKETNINSSENSTSTLSTCLINQILSLNRASPEIVGKGCLKESGSYMWIYVFMGNMLRGIGETPIVPLGLSYIDDFAKEGHSSLYLGILNAIAMIGPIIGFTLGSLFSKMYVDIGYVDLSTIRITPTDSRWVGAWWLNFLVSGLFSIISSIPFFFLPQTPNKPQKERKASLSLHVLETNDEKDQTANLTNQGKNITKNVTGFFQSFKSILTNPLYVMFVLLTLLQVSSYIGAFTYVFKYVEQQYGQPSSKANILLGVITIPIFASGMFLGGYIIKKFKLNTVGIAKFSCFTAVMSLSFYLLYFFILCENKSVAGLTMTYDGNNPVTSHRDVPLSYCNSDCNCDESQWEPVCGNNGITYISPCLAGCKSSSGNKKPIVFYNCSCLEVTGLQNRNYSAHLGECPRDDACTRKFYFFVAIQVLNLFFSALGGTSHVMLIVKIVQPELKSLALGFHSMVIRALGGILAPIYFGALIDTTCIKWSTNNCGTRGSCRTYNSTSFSRVYLGLSSMLRVSSLVLYIILIYAMKKKYQEKDINASENGSVMDEANLESLNKNKHFVPSAGADSETHC | – | – | – | – | – | – | – | Km [8]: 3.8 µM
